Experimental data published in patent publication US12540120B2, “Herbicidal compounds” (SYNGENTA CROP PROTECTION AG, priority 2019, dated 2026).

Legend:
Assay type in all cases: in vivo
Lolium perenne (LOLPE) [1] = assay: B5 Pre-Emergence Efficacy—Test 2; design: key: 5-point scale: 5=80-100%, 4=60-79%, 3=40-59%, 2=20-39%, 1=0-19% damage; details: 250 g/ha, evaluated after 13 days
Description: (§1) B5 Pre-Emergence Efficacy—Test 2 Seeds of a variety of test species were sown in standard soil in pots: Solanum nigrum (SOLNI), Amaranthus retoflexus (AMARE), Setaria faberi (SETFA), Echinochloa crus-galli (ECHCG), Ipomoea hederacea (IPOHE), Lolium perenne (LOLPE). After cultivation for one day (pre-emergence) under controlled conditions in a glasshouse (at 24/16° C., day/night; 14 hours light; 65% humidity), the plants were sprayed with an aqueous spray solution derived from the formulation of the technical active ingredient in acetone/water (50:50) solution containing 0.5% Tween 20 (polyoxyethelyene sorbitan monolaurate, CAS RN 9005-64-5). Compounds are applied at 250 g/ha. The test plants were then grown in a glasshouse under controlled conditions (at 24/16° C., day/night; 14 hours light; 65% humidity) and watered twice daily. After 13 days, the test is evaluated for the percentage damage caused to the plant. The biological activities are assessed on a five point scale (5=80-100%; 4=60-79%; 3=40-59%; 2=20-39%; 1=0-19%). A blank value in the table is indicative that the compound was not tested on that species.

[2] = system: Echinochloa crus-galli (ECHCG); assay: B5 Pre-Emergence Efficacy—Test 2; design: key: 5-point scale: 5=80-100%, 4=60-79%, 3=40-59%, 2=20-39%, 1=0-19% damage; details: 250 g/ha, evaluated after 13 days
Description: as §1

[3] = system: Ipomoea hederacea (IPOHE); assay: B5 Pre-Emergence Efficacy—Test 2; design: key: 5-point scale: 5=80-100%, 4=60-79%, 3=40-59%, 2=20-39%, 1=0-19% damage; details: 250 g/ha, evaluated after 13 days
Description: as §1

Setaria faberi (SETFA) [4] = assay: B5 Pre-Emergence Efficacy—Test 2; design: key: 5-point scale: 5=80-100%, 4=60-79%, 3=40-59%, 2=20-39%, 1=0-19% damage; details: 250 g/ha, evaluated after 13 days
Description: as §1

[5] = system: Amaranthus retoflexus (AMARE); assay: B5 Pre-Emergence Efficacy—Test 2; details: 250 g/ha, evaluated after 13 days
Description: as §1

Solanum nigrum (SOLNI) [6] = assay: B5 Pre-Emergence Efficacy—Test 2; details: 250 g/ha, evaluated after 13 days
Description: as §1

Lolium perenne (LOLPE) [7] = assay: B2 Post-Emergence Efficacy—Test 2; details: post-emergence application, 250 g/ha, evaluated after 13 days (Test 2)
Description: (§2) B2 Post-Emergence Efficacy—Test 2 Seeds of a variety of test species are sown in standard soil in pots:—Solanum nigrum (SOLNI), Amaranthus retoflexus (AMARE), Setaria faberi (SETFA), Echinochloa crus-galli (ECHCG), Ipomoea hederacea (IPOHE), Lolium perenne (LOLPE). After 8 days cultivation (post-emergence) under controlled conditions in a glasshouse (at 24/16° C., day/night; 14 hours light; 65% humidity), the plants are sprayed with an aqueous spray solution derived from the formulation of the technical active ingredient in acetone/water (50:50) solution containing 0.5% Tween 20 (polyoxyethylene sorbitan monolaurate, CAS RN 9005-64-5). Compounds are applied at 250 g/ha. The test plants are then grown in a glasshouse under controlled conditions in a glasshouse (at 24/16° C., day/night; 14 hours light; 65% humidity) and watered twice daily. After 13 days, the test is evaluated for the percentage damage caused to the plant. The biological activities are assessed on a five point scale (5=80-100%; 4=60-79%; 3=40-59%; 2=20-39%; 1=0-19%). A blank value in the table is indicative that the compound was not tested on that species.

[8] = system: Echinochloa crus-galli (ECHCG); assay: B2 Post-Emergence Efficacy—Test 2; details: post-emergence application, 250 g/ha, evaluated after 13 days (Test 2)
Description: as §2

[9] = system: Amaranthus retoflexus (AMARE); assay: B2 Post-Emergence Efficacy—Test 2; details: post-emergence application, 250 g/ha, evaluated after 13 days (Test 2)
Description: as §2

[10] = system: Ipomoea hederacea (IPOHE); assay: B2 Post-Emergence Efficacy—Test 2; details: post-emergence application, 250 g/ha, evaluated after 13 days (Test 2)
Description: as §2

Setaria faberi (SETFA) [11] = assay: B2 Post-Emergence Efficacy—Test 2; details: post-emergence application, 250 g/ha, evaluated after 13 days (Test 2)
Description: as §2

Solanum nigrum (SOLNI) [12] = assay: B2 Post-Emergence Efficacy—Test 2; details: post-emergence application, 250 g/ha, evaluated after 13 days (Test 2)
Description: as §2

| Structure (SMILES) | Control of weed species after pre-emergence application, LOLPE (percentage damage, five point scale) (Lolium perenne (LOLPE) [1]) | Control of weed species after pre-emergence application, ECHCG (percentage damage, five point scale) [2] | Control of weed species after pre-emergence application, IPOHE (percentage damage, five point scale) [3] | Control of weed species after pre-emergence application, SETFA (percentage damage, five point scale) (Setaria faberi (SETFA) [4]) | Control of weed species after pre-emergence application, AMARE (percentage damage, five point scale) [5] | Control of weed species after pre-emergence application, SOLNI (percentage damage, five point scale) (Solanum nigrum (SOLNI) [6]) | percentage damage caused to the plant, five point scale, LOLPE (Lolium perenne (LOLPE) [7]) | percentage damage caused to the plant, five point scale, ECHCG [8] | percentage damage caused to the plant, five point scale, AMARE [9] | percentage damage caused to the plant, five point scale, IPOHE [10] | percentage damage caused to the plant, five point scale, SETFA (Setaria faberi (SETFA) [11]) | percentage damage caused to the plant, five point scale, SOLNI (Solanum nigrum (SOLNI) [12]) |
| --- | --- | --- | --- | --- | --- | --- | --- | --- | --- | --- | --- | --- |
| Cc1nn(C)c(=O)c(-c2c(F)ccc(Cl)c2CCc2ccc(-c3ccccc3)cc2)c1O [Compound A-1.027, 4-[3-chloro-6-fluoro-2-[2-(4-phenylphenyl)ethyl]phenyl]-5-hydroxy-2,6-dimethyl-pyridazin-3-one] | 2 (2=20-39%) | 1 (1=0-19%) | 4 (4=60-79%) | 3 (3=40-59%) | 5 (5=80-100%) | 4 (4=60-79%) | 5 (5=80-100%) | 5 (5=80-100%) | 5 (5=80-100%) | 4 (4=60-79%) | 5 (5=80-100%) | 4 (4=60-79%) |
| CCN(C)C(=O)c1ccc(CCc2c(Cl)ccc(F)c2-c2c(O)c(C)nn(C)c2=O)cc1F [Compound A-1.028, 4-[2-[6-chloro-3-fluoro-2-(5-hydroxy-2,6-dimethyl-3-oxo-pyridazin-4-yl)phenyl]ethyl]-N-ethyl-2-fluoro-N-methyl-benzamide] | 5 (5=80-100%) | 4 (4=60-79%) | 5 (5=80-100%) | 5 (5=80-100%) | 5 (5=80-100%) | 5 (5=80-100%) | 5 (5=80-100%) | 5 (5=80-100%) | 5 (5=80-100%) | 5 (5=80-100%) | 5 (5=80-100%) | 5 (5=80-100%) |
| Cc1nn(C)c(=O)c(-c2c(F)ccc(Cl)c2CCc2ccccc2C#N)c1O [Compound A-1.029] | 2 (2=20-39%) | 5 (5=80-100%) | 1 (1=0-19%) | 1 (1=0-19%) | 3 (3=40-59%) | 5 (5=80-100%) | 4 (4=60-79%) | 2 (2=20-39%) | 4 (4=60-79%) | 5 (5=80-100%) | 4 (4=60-79%) | 5 (5=80-100%) |
| Cc1nn(C)c(=O)c(-c2c(F)ccc(Cl)c2CCc2cccc(C#N)c2)c1O [Compound A-1.030] | 4 (4=60-79%) | 5 (5=80-100%) | 0 | 5 (5=80-100%) | 5 (5=80-100%) | 5 (5=80-100%) | 5 (5=80-100%) | 4 (4=60-79%) | 4 (4=60-79%) | 5 (5=80-100%) | 4 (4=60-79%) | 5 (5=80-100%) |
